In PubChem BioAssay AID1996:
Converted amounts (≈) assume the structure as drawn.

details: buffer; pH 7.4; 200.0 µM

| Structure (SMILES) | solubility kinetic [µg/mL] |
| --- | --- |
| N#Cc1ccc(C(=O)OCC(=O)N2CCCCCC2)cc1 | > 42.9 |
| O=C(NCCCc1ccccc1)N1CCOCC1 | > 37.2 |
| COCCNc1c2c(c(C#N)c3nc4ccccc4n13)CCCC2 | 11.8 (≈ 36.8 µM) |
| CN(C(=O)CSc1nc2c(c(=O)[nH]1)CCC2)c1ccccc1 | > 47.3 |
| COc1ccc(Cl)cc1NC(=S)N1CC(C)OC(C)C1 (stereo not given) | > 47.2 |
| O=c1cc(C(O)C[N+](=O)[O-])occ1OCc1ccccc1 (stereo not given) | 41.6 (≈ 143 µM) |
| O=C(NC(=S)NNC(=O)c1ccco1)c1ccccc1 | > 43.4 |
| Cc1ccc(N2C(=O)CC3(CCCC3)CC2=O)cc1 | 34.3 (≈ 133 µM) |
| Cn1cccc1C(=O)Nc1ccc(Cl)c(S(=O)(=O)N2CCCCC2)c1 | 8.7 (≈ 22.8 µM) |
| COc1cccc(NC(=O)NCc2c(-c3ccccc3)noc2C)c1 | 2.4 (≈ 7.11 µM) |
| CCN(CC)c1ccc(NC(=O)CCCCC(=O)Nc2ccc(N(CC)CC)cc2)cc1 | 0.4 (≈ 0.912 µM) |
| Cc1c(C(=O)OCC(=O)N2CCN(c3ccccc3)CC2)oc2ccccc12 | 4.5 (≈ 11.9 µM) |
| COc1ccccc1Nc1ccc2nonc2c1[N+](=O)[O-] | 2 (≈ 6.99 µM) |
| Fc1ccc(NC(=S)N2CCc3ccccc32)cc1 | 3.1 (≈ 11.4 µM) |
| N#C/C(=C\c1ccc(F)cc1)C(=O)Nc1ccccn1 | 19 (≈ 71.1 µM) |
| c1ccc2[nH]c(CCCc3nc4ccccc4[nH]3)nc2c1 | 29.7 (≈ 107 µM) |
| CC1CN(C(=S)Nc2cccc([N+](=O)[O-])c2)CC(C)O1 (stereo not given) | > 44.3 |
| Cc1ccc(OC(C)C(=O)Nc2ncc(Cl)cc2Cl)c([N+](=O)[O-])n1 (stereo not given) | 8.9 (≈ 24 µM) |
| Cc1ccc(N2C(=O)N(CC(=O)Nc3cc(C)cc(C)c3)C(=O)C2C)cc1 (stereo not given) | 7.5 (≈ 20.5 µM) |
| O=C(NC1CC1)c1cccc(Oc2ccccc2)c1 | > 38 |
| CCCc1cc(=O)[nH]c(SCC(=O)Nc2cccc3ccccc23)n1 | 3.4 (≈ 9.62 µM) |
| O=C(CN1CCC(C(=O)O)CC1)Nc1ccccc1Oc1ccccc1 | 47.5 (≈ 134 µM) |
| CCOC(=O)c1sc(=S)n(-c2ccc(C)cc2)c1N | 1.4 (≈ 4.76 µM) |
| COc1ccc(CN2CCN(CC3CC3)CC2CCO)cc1C (stereo not given) | > 47.8 |

| Structure (SMILES) | solubility kinetic [µg/mL] |
| --- | --- |
| O=C(CCS(=O)(=O)Cc1ccccc1)NCCc1ccccc1 | 11.9 (≈ 35.9 µM) |
| O=[N+]([O-])c1cc([N+](=O)[O-])c2cc3ccccc3nc2c1 | 0.2 (≈ 0.743 µM) |
| Cc1ccc(S(=O)(=O)N2CCN(c3ncccn3)CC2)c(C)c1 | 1.8 (≈ 5.41 µM) |
| COc1ccc(C2(c3ccc(OC)cc3)NC(=O)NC2=O)cc1 | > 46.8 |
| O=C(Nc1cccc(NC(=O)C2C3CC4OC(=O)C2C4C3)c1)c1ccccc1 (stereo not given) | 46.7 (≈ 124 µM) |
| OC(CNCc1ccccc1Cl)COc1ccc(F)cc1 (stereo not given) | > 46.5 |
| Cc1cn(CCC(=O)Nc2ccccc2N2CCOCC2)c2ccccc12 | 27.5 (≈ 75.7 µM) |
| O=C(COC(=O)c1nsc(Cl)c1Cl)NC1CCCCC1 | > 50.6 |
| CCc1ccc(C(=O)COC(=O)c2cnc(C)cn2)cc1 | > 42.6 |
| Cc1ccc(NC(=O)CN(C)CC(=O)Nc2ccccc2C#N)cc1 | > 50.5 |
| CCOC(=O)Cn1nc2sc3ccccc3n2c(=O)c1=O | > 45.8 |
| Cc1ccc2nc(SCC(=O)Nc3cc(C)on3)c(C)cc2c1 | < 0.2 |
| COc1ccccc1Nc1nc(Cl)nc(Nc2ccccc2OC)n1 | < 0.2 |
| CCC(=NCc1cc(OC)cc(OC)c1)c1c(O)[nH]c(=O)[nH]c1=O | 12.5 (≈ 37.5 µM) |
| N#Cc1cc([N+](=O)[O-])ccc1NC(=O)COC(=O)c1cnccn1 | > 49.1 |
| O=C(CCNS(=O)(=O)c1ccccc1C(F)(F)F)NCCCN1CCOCC1 | > 63.5 |
| Cc1ccccc1CNC(=O)COc1ccccc1 | > 38.3 |
| COc1cccc(OC)c1C(=O)OCC(=O)NCc1ccco1 | > 47.9 |
| Cc1cc(C)n(-c2cccc(C(=O)O)c2)n1 | > 32.4 |
| CC1(C)CC2CC(C)(CN2Cc2cccc([N+](=O)[O-])c2)C1 (stereo not given) | 5.2 (≈ 18 µM) |
| COc1cc(/C(O)=C(\C#N)c2nc3ccccc3[nH]2)cc(OC)c1OC | 7.1 (≈ 20.2 µM) |
| O=C(Nc1ccc2ccccc2n1)Nc1cccs1 | < 0.2 |
| CC(C)(C)c1nc2ccc([N+](=O)[O-])cc2[nH]1 | > 32.9 |
| Cc1ccc(C(=O)COc2ncnc3cc(Cl)ccc23)cc1 | 0.4 (≈ 1.28 µM) |

| Structure (SMILES) | solubility kinetic [µg/mL] |
| --- | --- |
| CCCn1c(=O)c(C(=O)NC(C)c2ccccc2)c(O)c2ccccc21 (stereo not given) | 1.3 (≈ 3.71 µM) |
| CC(=O)c1ccc(Sc2ccccc2)c([N+](=O)[O-])c1 | 3.1 (≈ 11.3 µM) |
| Cc1nn(C)c(NC(=O)c2ccccc2Cl)c1Br | > 49.3 |
| Cc1cc(C)c(C(=O)N2CCCC(Nc3ccc(F)cc3)C2)o1 (stereo not given) | > 47.5 |
| CN(C(=O)COc1ccc(Cl)cc1)C1(C)CCS(=O)(=O)C1 (stereo not given) | > 49.8 |
| Nc1ncc2c(n1)-c1ccoc1CC2 | > 28.1 |
| O=C(NCCS(=O)(=O)NCC1CCCO1)c1ccccc1 (stereo not given) | > 46.9 |
| CN1CCc2cccc3c2[C@@H]1Cc1ccc(O)c(O)c1-3.Cl | 12.5 |
| CCOc1ccccc1C1CC(=O)Nc2cc(OC)c(OC)cc21 (stereo not given) | 0.9 (≈ 2.75 µM) |
| CCCn1c(=O)c(-c2nc3ccccc3[nH]2)c(O)c2ccccc21 | 0.4 (≈ 1.25 µM) |
| Cc1ccc(OC(=O)CCC(=O)Nc2ccc(C(N)=O)cc2)cc1 | > 49 |
| Cc1ccc(C)c(CSCC(=O)NCc2cccs2)c1 | 41.8 (≈ 137 µM) |
| OC(CN1CCCCC1)c1c[nH]c2ccccc12 (stereo not given) | > 36.7 |
| O=C(O)Cc1ccc(-n2cccc2)cc1 | > 30.2 |
| CCOC(=O)c1ccccc1NC(=O)Cc1ccc(S(=O)(=O)N2CCCC2)s1 | 17.5 (≈ 41.4 µM) |
| CCN(Cc1ccncc1)C(=O)c1ccco1 | 29.4 (≈ 128 µM) |
| CSc1ncccc1C(=O)OCCCC(=O)c1ccc(F)cc1 | 3.8 (≈ 11.4 µM) |
| Cc1ccc(C)c2c1c1ccccc1n2C | 1.1 (≈ 5.26 µM) |
| FC(F)(F)c1cccc(NC2=NCCCS2)c1 | 33.7 (≈ 129 µM) |
| O=S(=O)(Nc1cccnc1Cl)c1ccc(F)cc1 | > 43 |
| O=C(NCCc1csc(-c2cccnc2)n1)c1cccc(Cl)c1 | > 51.6 |
| CCOc1ccc(N(CC(=O)N2CCCCCC2)S(=O)(=O)c2ccc(C)cc2)cc1 | 23.6 (≈ 54.8 µM) |
| CN(C)C(=O)C(NC(=O)c1ccccc1)=C(Cl)Cl | 42 (≈ 146 µM) |
| CC(=O)Nc1ccc(N2CCN(c3ccc(F)cc3)CC2)cc1 | 0.7 (≈ 2.23 µM) |

| Structure (SMILES) | solubility kinetic [µg/mL] |
| --- | --- |
| O=C(Nc1nc2ccccc2s1)c1c(F)cccc1Cl | 0.6 (≈ 1.96 µM) |
| Cc1ccc(S(C)(=O)=NS(=O)(=O)c2cccc3nsnc23)cc1 (stereo not given) | > 55.1 |
| CN(C)c1nc(N(C)C)nc(N(C#N)Cc2ccc(Cl)cc2)n1 | 0.3 (≈ 0.904 µM) |
| Cc1ccc(OCCn2c(=O)oc3ccc(C)cc32)cc1 | < 0.6 |
| COc1ccc(NC(=O)N2CCCCCC2)cc1OC | > 41.8 |
| Cc1ccc(S(N)(=O)=O)c(C)c1N1CCCC1=O | > 40.2 |
| COc1ccccc1CC(=O)NCCN1CCCCC1 | 39.3 (≈ 142 µM) |
| O=C(NC1CC1)C1CC(=O)N(c2cccc(Cl)c2)C1 (stereo not given) | > 41.8 |
| COc1ccc(NC(=O)CCc2nc3ccccc3[nH]2)cc1 | 5.3 (≈ 17.9 µM) |
| Cc1ccc(N2CC(=O)N(CC(=O)O)C2=O)cc1 | > 37.2 |
| Cc1ccccc1NC(=S)NC(=O)/C=C/c1ccco1 | 38.3 (≈ 134 µM) |
| O=C1N=c2ccccc2=C1c1c(O)[nH]c2c(C(F)(F)F)cccc12 | < 0.4 |
| O=C(O)C(=O)O.c1ccc(CCNC2CCCCCC2)cc1 | 45.3 |
| O=C(COC(=O)CN1C(=O)NC2(CCCCC2)C1=O)Nc1cc(F)ccc1F | > 59.3 |
| COc1cccc(C(=O)Nc2ccc(NC(=O)C3CCCCC3)nc2)c1 | 2 (≈ 5.66 µM) |
| CCOc1ccc(C(=O)NCC(=O)N2CCN(Cc3ccccc3)CC2)cc1 | > 57.2 |
| C=CCN(Cc1ccc(OC)c(OC)c1)C(=O)N1CCOCC1 | > 48.1 |
| O=C(Nc1cccc(Cl)c1)OC1CN2CCC1CC2 (stereo not given) | 3.6 (≈ 12.8 µM) |
| COc1ccc(NC(=O)C#Cc2ccccc2)cc1 | 5.2 (≈ 20.7 µM) |
| O=C(Nc1cccc(C(F)(F)F)c1)OCc1ccncc1 | 12.4 (≈ 41.9 µM) |
| CCOc1ccc(NC(=S)N2CCCC2)cc1 | > 37.6 |
| O=C(O)CNC(=O)c1ccc(N2CCOCC2)cc1[N+](=O)[O-] | > 46.4 |
| CCOC(=O)C1CCCN(C(=O)CN2C(=O)c3ccccc3S2(=O)=O)C1 (stereo not given) | > 57.1 |
| O=C1CCC(=O)N1OCCOc1ccccc1 | > 35.3 |

| Structure (SMILES) | solubility kinetic [µg/mL] |
| --- | --- |
| COCCn1c(SCC(=O)NC2CCCC2)nnc1-c1ccco1 | > 52.6 |
| Fc1ccc(SCCc2cccc[nH+]2)cc1.O=P([O-])(O)O | 9.7 |
| CN=C(Nc1cccnc1)c1ccccc1 | > 31.7 |
| Cc1ccc(C(=O)NC(=S)N(C)C2CCCCC2)cc1Br | 1.1 (≈ 2.98 µM) |
| O=C(NC(=S)N1CCCC1)c1ccc(Cl)cc1Cl | 32.5 (≈ 107 µM) |
| COc1ccc(S(=O)(=O)N2CCSCC2)cc1 | > 41 |
| CCOC(=O)c1sc(=NC(=O)c2cccs2)n(C)c1C | < 0.3 |
| CN(C)S(=O)(=O)c1cccc(NC(=O)COC(=O)c2cccnc2Cl)c1 | > 59.7 |
| COc1ccc(/C=N/NC(=O)CNC(=O)c2ccncc2)cc1 | > 46.8 |
| Cc1cc(C)cc(NC(=S)N(C)C)c1 | 30.7 (≈ 147 µM) |
| CC1(C)CC(NCCC(c2ccccc2)c2ccco2)CCO1 (stereo not given) | 44.5 (≈ 142 µM) |
| Cn1c(N)c(-c2ccccc2)c2ccc([N+](=O)[O-])cc2c1=O | 1.1 (≈ 3.73 µM) |
| CCOc1ccc(Nc2nc(N)c([N+](=O)[O-])c(N3CCN(C)CC3)n2)cc1 | 51.9 (≈ 139 µM) |
| O=C(c1[nH]ncc1[N+](=O)[O-])N1CCOCC1 | > 33.9 |
| c1cncc(-c2nc(NCC3CCCO3)c3ccccc3n2)c1 (stereo not given) | > 46 |
| N/C(=N\OC(=O)c1ccc(Cl)cc1[N+](=O)[O-])c1ccccn1 | 3 (≈ 9.35 µM) |
| Cc1nc2ccc(S(=O)(=O)N3CCCCC3)cc2s1 | 21.4 (≈ 72.2 µM) |
| CCOc1ccccc1NC(=O)N1CCc2ccccc2C1 | 33.1 (≈ 112 µM) |
| O=C(Cn1ccccc1=S)c1ccc(Cl)c(Cl)c1 | 6.3 (≈ 21.1 µM) |
| CCN=C1S/C(=C\c2cc(Br)c(O)c(OC)c2)C(=O)N1CC | 1.3 (≈ 3.37 µM) |
| COc1cc(/C=C2\SC(N3CCC(C)CC3)=NC2=O)ccc1O | > 49.9 |
| CC(C)COc1nc2ccccc2nc1N1CCN(C)CC1 | 33.9 (≈ 113 µM) |
| CC1C(=O)Nc2ccccc2N1C(=O)c1ccc(Cl)cc1 (stereo not given) | 27.4 (≈ 91.1 µM) |
| Cc1cc(C)nc(SCCC(=O)Nc2ccc(F)cc2)n1 | > 45.8 |
